Experimental data taken from patent US20150313913A1, “POSITIVE ALLOSTERIC MODULATORS OF THE GABA-A RECEPTOR IN THE TREATMENT OF AUTISM” (UNIVERSITY OF WASHINGTON THROUGH ITS CENTER FOR …, priority 2013, published 2015).
“Also recorded” adds a separate entry of the source.

What was measured:
Scn1a+/− mice = experiment: Open-field social interaction test; format: in vivo; conditions: single i.p. 0.0625 mg/kg 30 min before test, listed as CLZ
Protocol: (§1) The open-field social interaction test was performed as described previously^64 with minor modifications. The test was performed in the open field arena that was used for the open field test. An age- and gender-matched C57Bl/6J mouse (M) caged in a rectangular wire mesh cage (6×6×10 cm), was used as a social cue. The stranger mouse had never been exposed to the test mouse. The test mouse was placed in the open field arena with an empty wire cage for 10 min for habituation. Following the 10 min session, a stranger mouse was placed in the same cage and the test mouse was allowed to explore the arena for another 10 min. The empty cage or caged stranger mouse was placed in the center of one quadrant of the arena, and immobilized on the floor of the arena with double-sided tape. […] The movement of the mouse was recorded with a USB webcam (LIFECAM™ HD-6000, MICROSOFT™) and PC-based video-capture software (WINAVI™ Video Capture, ZJ MEDIA DIGITAL TECHNOLOGY™). The recorded video file was further analyzed by off-line video tracking software (ETHOVISION™ XT 7.0). Time spent in the cage-containing quadrant, and time spent in the area 5 cm proximal to the cage were measured. Immobilization behavior was also measured by video tracking software. […] All data shown are means±s.e.m. and analyzed using two-way ANOVA with Bonferroni's post hoc analysis. […]

wild-type mice = experiment: Open-field social interaction test; format: in vivo; conditions: 0.0625 mg/kg, listed as CLZ
Protocol: as §1

BTBR mice = experiment: Barnes circular maze test; format: in vivo
Description: (§2) The Barnes circular maze is a planar, round white PLEXIGLAS™ platform (92 cm diameter), 1 m above the floor, with 20 evenly spaced holes (7 cm diameter) located 5 cm from the perimeter. A black escape box (15×7×7 cm) was placed under one hole. Spatial cues with distinct patterns and shapes were placed on the wall of the testing room. A 500 lux light was turned on during the trial. An experimenter remained in the same place with minimal movement throughout the trials. The platform and the escape box were cleaned thoroughly with 70% ethanol and paper towels between each trial to remove olfactory cues. One day before the training trials began, test mice were habituated in the target box for 3 min. The training trials were repeated for 4 consecutive days, and 3 trials were performed each day with 20 min inter-trial intervals. At the beginning of each trial, a test mouse was placed in a cylindrical holding chamber (10 cm diameter) located in the center of the maze. After 10 s of holding time, the mouse was allowed to search for the target hole for 3 min. […] When the mouse entered the escape box, the light was turned off and the mouse remained undisturbed for 1 min. The movement of the mouse was recorded, and the number of errors made and the latency to find the target hole were measured during the training trials by video tracking software. On day 5, the probe trial was performed with each mouse. The escape box was removed, and the test mouse was allowed to find the target hole freely for 90 s. During the probe trial, total distance traveled and the latency to find the target hole were measured. % correct pokes and % time in the target area were also measured.
(§3) The number of errors made and the latency to find the target hole were measured during the 3 min-training trials by video tracking software.
(§4) During the 90 second-probe trial, the latency to find the target hole, % correct pokes, and % time in the target area were measured by the video-tracking software (EthoVision XT 8.5, Noldus Technology).

C57BL/6J mice = experiment: Barnes circular maze test; format: in vivo; conditions: 0.05 mg/kg
Description: as §2, §3, §4

[1] = test system: GABA-A α2, α3 and α5 subtypes; conditions: cited from earlier work
GABA-A α1 subtype = molecular target: T1, GABA-A α1 subtype (Homo sapiens, UniProt P14867+P18507); conditions: cited from earlier work
T1 sequence (P14867 28-456): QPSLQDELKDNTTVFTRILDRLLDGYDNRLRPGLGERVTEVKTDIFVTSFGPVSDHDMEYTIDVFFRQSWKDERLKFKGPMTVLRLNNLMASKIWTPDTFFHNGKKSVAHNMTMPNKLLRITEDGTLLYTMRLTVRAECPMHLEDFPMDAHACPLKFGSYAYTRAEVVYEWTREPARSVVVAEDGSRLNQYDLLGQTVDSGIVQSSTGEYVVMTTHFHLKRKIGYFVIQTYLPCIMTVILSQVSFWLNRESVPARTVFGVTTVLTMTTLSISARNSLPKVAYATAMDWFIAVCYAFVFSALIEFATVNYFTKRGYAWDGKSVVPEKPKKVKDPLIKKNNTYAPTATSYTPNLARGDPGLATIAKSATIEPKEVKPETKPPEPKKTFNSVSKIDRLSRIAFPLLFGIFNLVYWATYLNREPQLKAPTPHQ
T1 sequence (P18507 40-467 limits assumed): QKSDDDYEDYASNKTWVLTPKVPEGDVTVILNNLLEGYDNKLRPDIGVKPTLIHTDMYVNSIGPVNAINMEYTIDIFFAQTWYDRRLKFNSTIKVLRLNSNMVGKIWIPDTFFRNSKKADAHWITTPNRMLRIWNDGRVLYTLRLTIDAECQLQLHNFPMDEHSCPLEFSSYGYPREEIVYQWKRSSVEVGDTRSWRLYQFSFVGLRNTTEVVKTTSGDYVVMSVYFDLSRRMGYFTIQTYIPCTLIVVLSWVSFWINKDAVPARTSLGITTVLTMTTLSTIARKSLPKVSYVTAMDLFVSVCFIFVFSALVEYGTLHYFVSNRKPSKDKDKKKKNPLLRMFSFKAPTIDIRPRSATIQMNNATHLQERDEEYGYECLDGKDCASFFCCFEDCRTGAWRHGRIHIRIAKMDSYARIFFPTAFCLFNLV
T1 sequence (P28472 26-473 partner): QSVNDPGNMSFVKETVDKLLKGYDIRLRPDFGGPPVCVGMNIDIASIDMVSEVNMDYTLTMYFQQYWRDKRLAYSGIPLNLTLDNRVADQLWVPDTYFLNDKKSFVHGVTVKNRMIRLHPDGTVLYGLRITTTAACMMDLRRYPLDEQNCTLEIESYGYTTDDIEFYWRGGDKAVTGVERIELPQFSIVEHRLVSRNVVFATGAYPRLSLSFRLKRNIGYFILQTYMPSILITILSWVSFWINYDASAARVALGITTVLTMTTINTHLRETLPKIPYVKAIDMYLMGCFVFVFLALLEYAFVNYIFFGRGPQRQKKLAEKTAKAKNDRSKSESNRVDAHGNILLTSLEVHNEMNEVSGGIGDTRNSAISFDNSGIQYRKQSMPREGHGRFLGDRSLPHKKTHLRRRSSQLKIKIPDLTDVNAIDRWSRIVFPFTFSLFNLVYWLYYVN

Row | Compound | social interaction, open field social interaction test (Scn1a+/− mice) | social interaction, open field social interaction test (wild-type mice) | spatial learning during training sessions (latency, errors) (BTBR mice; 0.05 mg/kg) | spatial memory in probe trials (BTBR mice; single low dose 30 min prior) | learning performance and spatial memory (C57BL/6J mice) | action at α2, α3 and α5 subtypes [1] | action at the α1 subtype (GABA-A α1 subtype)
1 | O=C1CN=C(c2ccccc2Cl)c2cc([N+](=O)[O-])ccc2N1 [Clonazepam] | completely rescued; also recorded: completely restored; also recorded: completely recovered | no effect; also recorded: absent; also recorded: not changed | significantly improved | increased | regardless of clonazepam treatment; also recorded: significantly worsened |  | 
2 | Cn1ncnc1COc1nn2c(-c3cc(F)ccc3F)nnc2cc1C(C)(C)C [L-838,417] |  |  |  |  |  | partial agonist | antagonist
